Where a name gives a salt, the structure may show the parent alone. Where a SMILES comes first, the peptide text is derived from it. [ ]: non-standard residue; d: D form. The star is where a group is joined. Phe(4-I) = N[C@@H](Cc1ccc(I)cc1)C(=O)O; d1Nal = N[C@H](Cc1cccc2ccccc12)C(=O)O; NMeF = CN[C@@H](Cc1ccccc1)C(=O)O; Cha = N[C@@H](CC1CCCCC1)C(=O)O; dCha = N[C@H](CC1CCCCC1)C(=O)O; dPhg = N[C@@H](C(=O)O)c1ccccc1; NMe(benzyl) = CN(Cc1ccccc1)*; dNle = CCCC[C@@H](N)C(=O)O; Nle = CCCC[C@H](N)C(=O)O; Tfa = O=C(C(F)(F)F)*

Experimental findings from patent publication US5386011A, “Hexapeptide anaphylatoxin-receptor ligands” (priority 1990, dated 1995) are described below.

This test deals with T1, C5a Receptor (Homo sapiens, UniProt P21730).
T1 construct: 2.5-25 ug/mL of purified PMNL membrane fragments; endogenous in cells; host or cells: PMNL (polymorphonuclear leukocytes), purified membrane fragments
T1 sequence (P21730 1-350): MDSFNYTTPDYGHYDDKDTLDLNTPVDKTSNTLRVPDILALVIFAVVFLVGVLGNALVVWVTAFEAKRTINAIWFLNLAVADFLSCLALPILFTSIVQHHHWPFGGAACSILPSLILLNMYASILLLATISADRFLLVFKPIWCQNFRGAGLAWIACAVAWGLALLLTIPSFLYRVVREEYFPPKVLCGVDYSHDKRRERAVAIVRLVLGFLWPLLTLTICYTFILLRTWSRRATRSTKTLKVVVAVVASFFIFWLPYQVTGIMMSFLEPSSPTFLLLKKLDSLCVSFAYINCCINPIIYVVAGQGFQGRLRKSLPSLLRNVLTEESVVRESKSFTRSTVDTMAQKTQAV
The test can be described thus: Anaphylatoxin receptor binding Ki determination: inhibition of 125I-C5a binding to purified PMNL membrane fragments. The conditions noted are these: 0.03-1 nM 125I-C5a, 2.5-25 ug/mL purified PMNL membrane fragments, filtration; read-out: Ki (In vitro C5a Receptor Binding Potency). As for the experimental part:
Specific inhibition of C5a binding activity of representative compounds of the present invention was measured using 0.03-1 nM ^125 I-C5a with 2.5-25 ug/mL of purified PMNL membrane fragments (Borregaard, N.; Heiple, J. M.; Simons, E. R.; and Clark, R. A. J. Cell. Biol. 1983, 97, 52-61.). Free and membrane-bound ligand were separated by filtration.
Usually Ki stands for the equilibrium dissociation constant of an inhibitor or competing ligand from its target. As to `CC(C)(C)CC(N)C(=O)N[C@@H](CCCCN)C(=O)N1CCC[C@H]1C(=O)N[C@H](CC1CCCCC1)C(=O)N[C@@H](CC1CCCCC1)C(=O)N[C@H](CCCNC(=N)N)C(=O)O` (mixture of isomers) [Example 6, H-{(R/S)-t-Butylalanyl}-Lysyl-Prolyl-{(2R)-2-Amino-3-cyclohexylproanoyl}-{(2S)-2-Amino-3-cyclohexylpropanoyl}-DArginyl-OH], the Ki came out at 80 nM.

Turning to `CN[C@@H](Cc1ccccc1)C(=O)N[C@@H](CCCCN)C(=O)N[C@@H](CCC(=O)O)C(=O)N[C@H](CC1CCCCC1)C(=O)N[C@@H](Cc1ccccc1)C(=O)N[C@H](CCCNC(=N)N)C(=O)O` [Example 40, (N-Methyl)Phenylalanyl-Lysyl-Glutamyl-{(2R)-2-Amino-3-cyclohexylpropanoyl}-Phenylalanyl-DArginyl-OH] (H-[NMeF]KE[dCha]F[dR]-OH), the Ki amounted to 100 nM.

For the compound `N=C(N)NCCC[C@@H](NC(=O)[C@H](CC1CCCCC1)NC(=O)[C@@H](CC1CCCCC1)NC(=O)[C@H](CCCCN)NC(=O)[C@H](CCCCN)NC(=O)[C@@H](N)Cc1ccccc1)C(=O)O` [Example 58, H-Phenylalanyl-Lysyl-Lysyl-{(2R)-2-Amino-3-cyclohexylpropanoyl}-{(2S)-2-Amino-3-cyclohexylpropanoyl}-DArginyl-OH] (H-FKK[dCha][Cha][dR]-OH), the Ki stood at 11 nM.

As for `CN[C@@H](Cc1ccccc1)C(=O)N[C@@H](CCCCN)C(=O)N1CCC[C@H]1C(=O)N[C@H](CC1CCCCC1)C(=O)N[C@@H](CC1CCCCC1)C(=O)N[C@H](CCCNC(=N)N)C(=O)N(C)Cc1ccccc1` [Example 97, (N-Methyl)Phenylalanyl-Lysyl-Prolyl-{(2R) -2-Amino-3-cyclohexylpropanoyl}-{(2S)-2-Amino-3-cyclohexylpropanoyl}-DArginyl-N-(Methyl)(Benzyl)] (H-[NMeF]KP[dCha][Cha][dR]-{NMe(benzyl)}), the Ki turned out to be 520 nM.

On to `CC(C)C[C@H](NC(=O)[C@H](CC1CCCCC1)NC(=O)[C@H](CC1CCCCC1)NC(=O)[C@H](CCCCN)NC(=O)[C@@H](N)Cc1ccc(I)cc1)C(=O)N[C@H](C)C(=O)N[C@@H](CCCNC(=N)N)C(=O)O` [Example 107, H-(p-Iodo)Phenylalanyl-Lysyl-{(2S)-2-Amino-3-cyclohexylpropanoyl}-{(2S)-2-Amino-3-cyclohexylpropanoyl}-Leucyl-DAlanyl-Arginyl-OH] (H-[Phe(4-I)]K[Cha][Cha]L[dA]R-OH), for which the Ki is 3600 nM.

On to `CC(=O)N[C@@H](Cc1ccccc1)C(=O)N[C@@H](CCCCN)C(=O)N[C@@H](C)C(=O)N[C@H](CC1CCCCC1)C(=O)N[C@@H](CC1CCCCC1)C(=O)N[C@H](CCCNC(=N)N)C(=O)O` [Example 120, N-Acetyl-Phenylalanyl-Lysyl-Alanyl-{(2R)-2-Amino-3-cyclohexylpropanoyl}-{(2S)-2-Amino-3-cyclohexylpropanoyl}-DArginyl-OH] (Ac-FKA[dCha][Cha][dR]-OH), for which the Ki is 110 nM.

Regarding `CN[C@@H](Cc1ccccc1)C(=O)N[C@@H](CCCCN)C(=O)N1CCC[C@H]1C(=O)N[C@H](CC1CCCCC1)C(=O)N[C@@H](Cc1ccccc1)C(=O)N[C@H](CCCNC(=N)N)C(=O)O` [Example 128, (N-Methyl) Phenylalanyl-Lysyl-Prolyl-{(2R)-2-Amino-3-cyclohexylpropanoyl}-Phenylalanyl-DArginyl-OH] (H-[NMeF]KP[dCha]F[dR]-OH), the Ki worked out at 39 nM.

As to `CN[C@@H](Cc1ccccc1)C(=O)N[C@@H](CCCCN)C(=O)N[C@@H](C)C(=O)N[C@H](CC1CCCCC1)C(=O)N[C@@H](CC1CCCCC1)C(=O)N[C@H](CCCNC(=N)N)C(=O)O` [Example 152, (N-Methyl)Phenylalanyl-Lysyl-Alanyl-{(2R)-2-Amino-3-cyclohexylpropanoyl}-{(2S)-2-Amino-3-cyclohexylpropanoyl}-DArginyl-OH] (H-[NMeF]KA[dCha][Cha][dR]-OH), the Ki is 83 nM.

On to `CN[C@@H](Cc1ccccc1)C(=O)N[C@@H](CCCCN)C(=O)N1CCC[C@H]1C(=O)N[C@H](CC1CCCCC1)C(=O)N[C@@H](CC1CCCCC1)C(=O)N[C@H](CCCNC(=N)N)C(=O)O` [Example 166, (N-Methyl)Phenylalanyl-Lysyl-Prolyl-{(2R)-2-Amino-3-cyclohexylpropanoyl}-{(2S)-2-Amino-3-cyclohexylpropanoyl}-DArginyl-OH] (H-[NMeF]KP[dCha][Cha][dR]-OH), for which the Ki turned out to be 35 nM.

In the case of `CCCC[C@H](NC(=O)[C@H](Cc1ccccc1)NC)C(=O)N1CCC[C@H]1C(=O)N[C@H](CC1CCCCC1)C(=O)N[C@@H](CC1CCCCC1)C(=O)N[C@H](CCCNC(=N)N)C(=O)O` [Example 187, (N-Methyl)Phenylalanyl-Norleucyl-Prolyl-{(2R)-2-Amino-3-cyclohexylpropanoyl}-{(2S)-2-Amino-3-cyclohexylpropanoyl}-DArginyl-OH] (H-[NMeF][Nle]P[dCha][Cha][dR]-OH), the Ki amounted to 300 nM.

For the compound `CC(C)C[C@@H](NC(=O)[C@H](CC1CCCCC1)NC(=O)[C@H](CC1CCCCC1)NC(=O)[C@H](C)NC(=O)[C@H](CCCCN)NC(=O)[C@@H](N)Cc1ccccc1)C(=O)N[C@@H](CCCNC(=N)N)C(=O)O` [Example 195, H-Phenylalanyl-Lysyl-Alanyl-{(2S)-2-Amino-3-cyclohexylpropanoyl}-{(2S)-2-Amino-3-cyclohexylpropanoyl}-DLeucyl-Arginyl-OH] (H-FKA[Cha][Cha][dL]R-OH), the Ki was found to be 1500 nM.

Take `CN[C@@H](Cc1ccccc1)C(=O)N[C@@H](CCCCN)C(=O)N1CCC[C@H]1C(=O)N[C@H](CC1CCCCC1)C(=O)N[C@@H](Cc1ccccc1)C(=O)N[C@H](Cc1ccccc1)C(=O)O` [Example 212, (N-Methyl)Phenylalanyl-Lysyl-Prolyl-{(2R)-2-Amino-3-cyclohexylpropanoyl}-Phenylalanyl-DPhenylalanyl-OH] (H-[NMeF]KP[dCha]F[dF]-OH): the Ki came to 110 nM.

On to `CC(C)C[C@H](NC(=O)[C@H](CC1CCCCC1)NC(=O)[C@H](CC1CCCCC1)NC(=O)[C@H](C)NC(=O)[C@H](CCCCN)NC(=O)[C@@H](N)Cc1ccccc1)C(=O)N[C@H](CCCNC(=N)N)C(=O)O` [Example 214, H-Phenylalanyl-Lysyl-Alanyl-{(2S)-2-Amino-3-cyclohexylpropanoyl}-{(2S)-2-Amino-3-cyclohexylpropanoyl}-Leucyl-DArg] (H-FKA[Cha][Cha]L[dR]-OH), for which the Ki came to 90 nM.

For the compound `CN[C@@H](Cc1ccccc1)C(=O)N[C@@H](CCCCN)C(=O)N1CCC[C@H]1C(=O)N[C@H](Cc1cccc2ccccc12)C(=O)N[C@@H](Cc1ccccc1)C(=O)N[C@H](CCCNC(=N)N)C(=O)O` [Example 224, (N-Methyl)Phenylalanyl-Lysyl-Prolyl-D(1-Naphthylalanyl)-Phenylalanyl-DArginyl-OH] (H-[NMeF]KP[d1Nal]F[dR]-OH), the Ki came to 12 nM.

As for `CN[C@@H](Cc1ccccc1)C(=O)N[C@@H](CCCCNC(=O)C(F)(F)F)C(=O)N1CCC[C@H]1C(=O)N[C@H](CC1CCCCC1)C(=O)N[C@@H](CC1CCCCC1)C(=O)N[C@H](CCCNC(=N)N)C(=O)O` [Example 305, (N-Methyl)Phenylalanyl-Lysyl(N-epsilon-trifluoroacetyl)-Prolyl-{(2R)-2-Amino-3-cyclohexylpropanoyl}-{(2S)-2-Amino-3-cyclohexylpropanoyl}-DArginyl-OH] (H-[NMeF]K(Tfa)P[dCha][Cha][dR]-OH), the Ki stood at 220 nM.

`CC(C)[C@H](NC(=O)[C@H](CCCCN)NC(=O)[C@@H](N)Cc1ccccc1)C(=O)N[C@H](CC1CCCCC1)C(=O)N[C@@H](CC1CCCCC1)C(=O)N[C@H](CCCNC(=N)N)C(=O)O` [Example 360, H-Phenylalanyl-Lysyl-Valyl-{(2R)-2-Amino-3-cyclohexylpropanoyl}-{(2S)-2-Amino-3-cyclohexylpropanoyl}-DArginyl-OH] (H-FKV[dCha][Cha][dR]-OH): the Ki turned out to be 53 nM.

In the case of `CN[C@@H](Cc1ccccc1)C(=O)N[C@@H](CCCCN)C(=O)N1CCC[C@H]1C(=O)N[C@H](CC1CCCCC1)C(=O)N[C@@H](Cc1ccccc1)C(=O)N[C@@H](C(=O)O)c1ccccc1` [Example 367, (N-Methyl)Phenylalanyl-Lysyl-Prolyl-{(2R)-2-Amino-3-cyclehexylpropanoyl}-Phenylalanyl-{(R)-Phenylglycinyl}-OH] (H-[NMeF]KP[dCha]F[dPhg]-OH), the Ki was 1900 nM.

Consider `C[C@H](NC(=O)[C@H](CCCCN)NC(=O)[C@@H](N)Cc1ccccc1)C(=O)N[C@H](CC1CCCCC1)C(=O)N[C@@H](CC1CCCCC1)C(=O)N[C@H](CCCNC(=N)N)C(=O)O` [Example 370, H-Phenylalanyl-Lysyl-Alanyl-{(2R)-2-Amino-3-cyclohexylpropanoyl}-{(2S)-2-Amino-3-cyclohexylpropanoyl}-DArginyl-OH] (H-FKA[dCha][Cha][dR]-OH), for which the Ki worked out at 85 nM.

On to `CCCC[C@@H](NC(=O)[C@H](CC(C)C)NC(=O)[C@H](CC1CCCCC1)NC(=O)[C@H](CC1CCCCC1)NC(=O)[C@H](C)NC(=O)[C@H](CCCCN)NC(=O)[C@@H](N)Cc1ccccc1)C(=O)O` [Example 390, H-Phenylalanyl-Lysyl-Alanyl-{(2S)-2-Amino-3-cyclohexylpropanoyl}-{(2S)-2-Amino-3-cyclohexylpropanoyl}-Leucyl-DNorleucyl-OH] (H-FKA[Cha][Cha]L[dNle]-OH), for which the Ki stood at 4000 nM.
